Assay results published in publication PMC4512978, “Synthesis and evaluation in rats of homologous series of [^18F]-labeled dopamine D2/3 receptor agonists based on the 2-aminomethylchroman scaffold as potential PET tracers” (EJNMMI Research, 2015).
Read-outs that look alike come from different tables or passages of the source.

Legend:
D2/3R = tested on: D2/3R; parameters: method as in PMID 24325578; settings: cited from earlier work; for Striatal SBR % change relative to control condition, Raclopride / Striatal SBR, Raclopride: 10 μM raclopride; for Striatal SBR % change relative to control condition, GTP / Striatal SBR, GTP: 100 μM GTP; for Striatal SBR, Control: radioligand only
[1] = Ex vivo tissue uptake after the PET scan (gamma-counter); type: in vivo, Sprague-Dawley rats
Procedure: After the end of the PET scans (i.e., 98 ± 8 min after tracer injection), anesthetized animals were sacrificed by heart extirpation and dissected. Samples of brain and peripheral tissues were taken. All samples were weighed, and their radioactivity was measured in a gamma-counter.

[2] = [^18F]FBu-AMC13 0.2 nM, [^18F]FEt-AMC15 5.8 ± 1.6 nM
[3] = raclopride 1 mg/kg, after PET scan
[4] = saline, after PET scan (98 ± 8 min p.i.)

Oc1ccc2c(c1)O[C@@H](CNCc1ccc(OCCCC[18F])cc1)CC2 [[^18F]FBu-AMC13, (R)-2-[(4-(4-[^18F]fluorobutoxy)benzylamino)methyl]chroman-7-ol]
Striatal SBR % change relative to control condition, Raclopride (D2/3R; [2]): −88%
Striatal SBR, Raclopride (D2/3R; [2]): 0.10 ± 0.19
Striatal SBR % change relative to control condition, Raclopride (D2/3R; tracer 4.5 ± 3.6 nM): −79%
Striatal SBR, Raclopride (D2/3R; tracer 4.5 ± 3.6 nM): 0.04 ± 0.22
Striatal SBR % change relative to control condition, GTP (D2/3R; [2]): −76%
Striatal SBR, GTP (D2/3R; [2]): 0.20 ± 0.16
Striatal SBR, Control (D2/3R; [2]): 0.85 ± 0.23
Striatal SBR, Control (D2/3R; tracer 4.5 ± 3.6 nM): 0.19 ± 0.18
Ex vivo uptake, Adrenal glands ([1]; RAC): 32.1±3.6 SUV
Ex vivo uptake, Bladder ([1]; RAC): 0.59±0.26 SUV
Ex vivo uptake, Bone ([1]; RAC): 0.77±0.46 SUV
Ex vivo uptake, Bone marrow ([1]; RAC): 2.18±0.09 SUV
Ex vivo uptake, Duodenum ([1]; RAC): 2.70±1.37 SUV
Ex vivo uptake, Heart ([1]; RAC): 0.36±0.03 SUV
Ex vivo uptake, Kidney ([1]; RAC): 2.36±0.54 SUV
Ex vivo uptake, Large intestine ([1]; RAC): 0.46±0.19 SUV
Ex vivo uptake, Liver ([1]; RAC): 1.99±0.86 SUV
Ex vivo uptake, Lung ([1]; RAC): 4.26±1.02 SUV
Ex vivo uptake, Muscle ([1]; RAC): 0.27±0.02 SUV
Ex vivo uptake, Pancreas ([1]; RAC): 3.54±0.64 SUV
Ex vivo uptake, Plasma ([1]; RAC): 0.16±0.03 SUV
Ex vivo uptake, Prostate ([1]; RAC): 1.27±0.40 SUV
Ex vivo uptake, Small intestine ([1]; RAC): 3.21±3.67 SUV
Ex vivo uptake, Small intestine content ([1]; RAC): 11.0±11.4 SUV
Ex vivo uptake, Spleen ([1]; RAC): 2.14±0.20 SUV
Ex vivo uptake, Stomach ([1]; RAC): 2.19±0.67 SUV
Ex vivo uptake, Submandibular gland ([1]; RAC): 2.12±0.85 SUV
Ex vivo uptake, Thymus ([1]; RAC): 1.54±0.12 SUV
Ex vivo uptake, Urine ([1]; RAC): 1.51±0.95 SUV
Ex vivo uptake, Adrenal glands ([1]; SAL): 34.5±3.5 SUV
Ex vivo uptake, Bladder ([1]; SAL): 0.43±0.16 SUV
Ex vivo uptake, Bone ([1]; SAL): 0.73±0.47 SUV
Ex vivo uptake, Bone marrow ([1]; SAL): 2.31±1.19 SUV
Ex vivo uptake, Duodenum ([1]; SAL): 3.24±1.2 SUV
Ex vivo uptake, Heart ([1]; SAL): 0.50±0.25 SUV
Ex vivo uptake, Kidney ([1]; SAL): 3.24±0.69 SUV
Ex vivo uptake, Large intestine ([1]; SAL): 0.60±0.13 SUV
Ex vivo uptake, Liver ([1]; SAL): 1.49±0.15 SUV
Ex vivo uptake, Lung ([1]; SAL): 4.85±2.15 SUV
Ex vivo uptake, Muscle ([1]; SAL): 0.33±0.13 SUV
Ex vivo uptake, Pancreas ([1]; SAL): 3.78±0.41 SUV
Ex vivo uptake, Plasma ([1]; SAL): 0.15±0.02 SUV
Ex vivo uptake, Prostate ([1]; SAL): 0.95±0.17 SUV
Ex vivo uptake, Small intestine ([1]; SAL): 4.52±5.94 SUV
Ex vivo uptake, Small intestine content ([1]; SAL): 20.9±31.4 SUV
Ex vivo uptake, Spleen ([1]; SAL): 2.48±1.27 SUV
Ex vivo uptake, Stomach ([1]; SAL): 1.90±0.26 SUV
Ex vivo uptake, Submandibular gland ([1]; SAL): 2.01±0.53 SUV
Ex vivo uptake, Thymus ([1]; SAL): 2.04±0.27 SUV
Ex vivo uptake, Urine ([1]; SAL): 0.63±0.53 SUV
Ex vivo uptake, Brainstem [1, 3]: 1.25 ± 0.14 SUV
Ex vivo uptake, Cerebellum [1, 3]: 0.73 ± 0.08 SUV
Ex vivo uptake, Cortex [1, 3]: 1.01 ± 0.11 SUV
Ex vivo uptake, Hippocampus [1, 3]: 1.21 ± 0.06 SUV
Ex vivo uptake, Mean brain uptake [1, 3]: 1.03 ± 0.11 SUV
Ex vivo uptake, Olfactory bulbs [1, 3]: 0.86 ± 0.09 SUV
Ex vivo uptake, Parietal bone [1, 3]: 0.70 ± 0.18 SUV
Ex vivo uptake, Pituitary [1, 3]: 2.72 ± 0.77 SUV
Ex vivo uptake, Rest of brain [1, 3]: 1.10 ± 0.17 SUV
Ex vivo uptake, Striatum [1, 3]: 1.21 ± 0.14 SUV
Ex vivo uptake, Thalamus + hypothalamus [1, 3]: 1.07 ± 0.10 SUV
Ex vivo uptake, Brainstem ([1]; saline, after PET scan): 1.97 ± 0.42 (2) SUV
Ex vivo uptake, Cerebellum ([1]; saline, after PET scan): 1.11 ± 0.29 (8) SUV
Ex vivo uptake, Cortex ([1]; saline, after PET scan): 1.50 ± 0.32 (7) SUV
Ex vivo uptake, Hippocampus ([1]; saline, after PET scan): 1.50 ± 0.25 (6) SUV
Ex vivo uptake, Mean brain uptake ([1]; saline, after PET scan): 1.56 ± 0.33 SUV
Ex vivo uptake, Olfactory bulbs ([1]; saline, after PET scan): 1.85 ± 0.64 (3) SUV
Ex vivo uptake, Parietal bone ([1]; saline, after PET scan): 0.61 ± 0.17 SUV
Ex vivo uptake, Pituitary ([1]; saline, after PET scan): 3.19 ± 0.29 SUV
Ex vivo uptake, Rest of brain ([1]; saline, after PET scan): 1.60 ± 0.25 (4) SUV
Ex vivo uptake, Thalamus + hypothalamus ([1]; saline, after PET scan): 2.07 ± 0.70 (1) SUV
Ex vivo uptake, Striatum [1, 4]: 1.60 ± 0.33 (5) SUV

Oc1ccc2c(c1)O[C@@H](CNCCN1CCN(c3ccc(OCC[18F])cc3)CC1)CC2 [[^18F]FEt-AMC15, (R) 1-(4-(2-[^18F]fluoroethoxy)phenyl)-4-(4-(7-hydroxychroman-2-yl)-3-azabutyl)-piperazine]
Striatal SBR % change relative to control condition, Raclopride (D2/3R; [2]): −60%
Striatal SBR, Raclopride (D2/3R; [2]): 0.65 ± 0.37
Striatal SBR % change relative to control condition, GTP (D2/3R; [2]): −59%
Striatal SBR, GTP (D2/3R; [2]): 0.67 ± 0.28
Striatal SBR, Control (D2/3R; [2]): 1.64 ± 1.04
Ex vivo uptake, Adipose tissue ([1]; RAC): 0.10±0.05 SUV
Ex vivo uptake, Adrenal glands ([1]; RAC): 1.73±1.07 SUV
Ex vivo uptake, Bladder ([1]; RAC): 0.69±0.30 SUV
Ex vivo uptake, Blood cells ([1]; RAC): 0.05±0.04 SUV
Ex vivo uptake, Bone ([1]; RAC): 0.12±0.08 SUV
Ex vivo uptake, Bone marrow ([1]; RAC): 0.91±0.53 SUV
Ex vivo uptake, Caecum ([1]; RAC): 0.91±1.10 SUV
Ex vivo uptake, Duodenum ([1]; RAC): 22.8±36.6 SUV
Ex vivo uptake, Heart ([1]; RAC): 0.15±0.10 SUV
Ex vivo uptake, Kidney ([1]; RAC): 0.61±0.51 SUV
Ex vivo uptake, Large intestine ([1]; RAC): 1.20±1.48 SUV
Ex vivo uptake, Large intestine content ([1]; RAC): 0.06±0.04 SUV
Ex vivo uptake, Liver ([1]; RAC): 1.47±1.56 SUV
Ex vivo uptake, Lung ([1]; RAC): 1.19±0.40 SUV
Ex vivo uptake, Muscle ([1]; RAC): 0.15±0.11 SUV
Ex vivo uptake, Pancreas ([1]; RAC): 0.92±0.77 SUV
Ex vivo uptake, Plasma ([1]; RAC): 0.07±0.02 SUV
Ex vivo uptake, Prostate ([1]; RAC): 0.42±0.10 SUV
Ex vivo uptake, Small intestine ([1]; RAC): 11.1±18.4 SUV
Ex vivo uptake, Small intestine content ([1]; RAC): 60.5±104 SUV
Ex vivo uptake, Spleen ([1]; RAC): 1.62±1.15 SUV
Ex vivo uptake, Stomach ([1]; RAC): 1.73±0.75 SUV
Ex vivo uptake, Submandibular gland ([1]; RAC): 1.41±0.34 SUV
Ex vivo uptake, Testes ([1]; RAC): 0.04±0.01 SUV
Ex vivo uptake, Thymus ([1]; RAC): 0.43±0.15 SUV
Ex vivo uptake, Urine ([1]; RAC): 2.32±3.35 SUV
Ex vivo uptake, Whole blood ([1]; RAC): 0.12±0.08 SUV
Ex vivo uptake, Adipose tissue ([1]; SAL): 0.18±0.09 SUV
Ex vivo uptake, Adrenal glands ([1]; SAL): 1.53±0.58 SUV
Ex vivo uptake, Bladder ([1]; SAL): 0.23±0.05 SUV
Ex vivo uptake, Blood cells ([1]; SAL): 0.05±0.04 SUV
Ex vivo uptake, Bone ([1]; SAL): 0.14±0.03 SUV
Ex vivo uptake, Bone marrow ([1]; SAL): 0.98±0.36 SUV
Ex vivo uptake, Caecum ([1]; SAL): 0.15±0.10 SUV
Ex vivo uptake, Duodenum ([1]; SAL): 1.92±0.35 SUV
Ex vivo uptake, Heart ([1]; SAL): 0.11±0.04 SUV
Ex vivo uptake, Kidney ([1]; SAL): 0.40±0.10 SUV
Ex vivo uptake, Large intestine ([1]; SAL): 0.15±0.07 SUV
Ex vivo uptake, Large intestine content ([1]; SAL): 0.02±0.01 SUV
Ex vivo uptake, Liver ([1]; SAL): 0.86±0.23 SUV
Ex vivo uptake, Lung ([1]; SAL): 1.18±0.16 SUV
Ex vivo uptake, Muscle ([1]; SAL): 0.07±0.04 SUV
Ex vivo uptake, Pancreas ([1]; SAL): 0.75±0.27 SUV
Ex vivo uptake, Plasma ([1]; SAL): 0.14±0.11 SUV
Ex vivo uptake, Prostate ([1]; SAL): 0.38±0.15 SUV
Ex vivo uptake, Small intestine ([1]; SAL): 0.18±0.07 SUV
Ex vivo uptake, Small intestine content ([1]; SAL): 0.56±0.24 SUV
Ex vivo uptake, Spleen ([1]; SAL): 1.52±0.68 SUV
Ex vivo uptake, Stomach ([1]; SAL): 1.79±0.92 SUV
Ex vivo uptake, Submandibular gland ([1]; SAL): 1.51±0.26 SUV
Ex vivo uptake, Testes ([1]; SAL): 0.04±0.01 SUV
Ex vivo uptake, Thymus ([1]; SAL): 0.49±0.09 SUV
Ex vivo uptake, Urine ([1]; SAL): 0.69±0.33 SUV
Ex vivo uptake, Whole blood ([1]; SAL): 0.06±0.03 SUV
Ex vivo uptake, Brainstem [1, 3]: 0.03 ± 0.01 SUV
Ex vivo uptake, Cerebellum [1, 3]: 0.03 ± 0.01 SUV
Ex vivo uptake, Cortex [1, 3]: 0.03 ± 0.01 SUV
Ex vivo uptake, Hippocampus [1, 3]: 0.03 ± 0.01 SUV
Ex vivo uptake, Mean brain uptake [1, 3]: 0.03 ± 0.01 SUV
Ex vivo uptake, Olfactory bulbs [1, 3]: 0.03 ± 0.02 SUV
Ex vivo uptake, Parietal bone [1, 3]: 0.08 ± 0.03 SUV
Ex vivo uptake, Pituitary [1, 3]: 1.08 ± 0.27 SUV
Ex vivo uptake, Rest of brain [1, 3]: 0.03 ± 0.02 SUV
Ex vivo uptake, Striatum [1, 3]: 0.03 ± 0.01 SUV
Ex vivo uptake, Thalamus + hypothalamus [1, 3]: 0.03 ± 0.01 SUV
Ex vivo uptake, Brainstem ([1]; saline, after PET scan): 0.03 ± 0.004 SUV
Ex vivo uptake, Cerebellum ([1]; saline, after PET scan): 0.03 ± 0.01 SUV
Ex vivo uptake, Cortex ([1]; saline, after PET scan): 0.03 ± 0.003 SUV
Ex vivo uptake, Hippocampus ([1]; saline, after PET scan): 0.03 ± 0.02 SUV
Ex vivo uptake, Mean brain uptake ([1]; saline, after PET scan): 0.03 ± 0.01 SUV
Ex vivo uptake, Olfactory bulbs ([1]; saline, after PET scan): 0.03 ± 0.001 SUV
Ex vivo uptake, Parietal bone ([1]; saline, after PET scan): 0.09 ± 0.03 SUV
Ex vivo uptake, Pituitary ([1]; saline, after PET scan): 1.36 ± 0.30 SUV
Ex vivo uptake, Rest of brain ([1]; saline, after PET scan): 0.02 ± 0.02 SUV
Ex vivo uptake, Thalamus + hypothalamus ([1]; saline, after PET scan): 0.03 ± 0.01 SUV
Ex vivo uptake, Striatum [1, 4]: 0.02 ± 0.02 SUV
